Active and inactive are the calls of the source. No cut-off for these calls is given here.
Legend:
SUM-159-PT [1] = assay: Cell cycle arrest in human SUM159 cells in presence of irradiation; format: functional, cell-based
HMLE [2] = assay: Cytotoxicity against HMLE-shEcad cells at 10 uM irradiated at 420 nm at 4 hrs post compound addition for 5 mins measured after 48 hrs by propidium iodide staining-based flow cytometric method; format: functional, cell-based; conditions: Homo sapiens
[3] = Drug uptake in nucleus of HMLE-shEcad cells at 5 uM irradiated with UV-light measured after 2 to 3 hrs by confocal microscopic method; format: ADME, subcellular; conditions: human
[4] = Dark toxicity against human H460 cells after 72 hrs by MTT assay; format: cell-based, NCI-H460
HMLE [5] = assay: Cell cycle arrest in HMLE-shEcad cells assessed as accumulation at S phase at 1 to 10 uM irradiated at 420 nm at 4 hrs post compound addition for 5 mins measured after 24 to 48 hrs by propidium iodide staining-based flow cytometric method; format: functional; conditions: Homo sapiens
MCF7 [6] = assay: Photocytotoxicity against human MCF7 cells assessed as growth inhibition irradiated at 350 nm at 4, 24, 48 hrs post compound addition for 5 mins measured after 72 hrs by MTT assay; format: functional, cell-based; conditions: MCF7, light or radiation study
[7] = Photocytotoxicity against HMLE-shEcad cells assessed as growth inhibition irradiated at 350 nm at 4, 24, 48 hrs post compound addition for 5 mins measured after 72 hrs by MTT assay; format: functional, cell-based; conditions: Homo sapiens, light or radiation study
[8] = Cell cycle arrest in HMLE-shGFP cells assessed as accumulation at G2/M phase at 1 to 10 uM irradiated at 420 nm at 4 hrs post compound addition for 5 mins measured after 24 to 48 hrs by propidium iodide staining-based flow cytometric method; conditions: human
[9] = Induction of reactive oxygen species generation in HMLE-shEcad cells at 10 uM irradiated at 420 nm for 5 mins measured after 2 hrs by H2DCF-DA dye-based FACS analysis relative to non-irradiated cells; format: functional, Homo sapiens
[10] = Dark toxicity against HMLE-shGFP cells after 72 hrs by MTT assay; format: cell-based; conditions: human
[11] = Drug uptake in cytoplasm of HMLE-shGFP cells at 5 uM irradiated with UV-light measured after 2 to 3 hrs by confocal microscopic method; format: ADME, subcellular; conditions: human
MCF7 [12] = assay: Photocytotoxicity against human MCF7 cells assessed as growth inhibition irradiated at 420 nm at 4, 24, 48 hrs post compound addition for 5 mins measured after 72 hrs by MTT assay; format: functional, cell-based; conditions: MCF7, light or radiation study
[13] = Drug uptake in nucleus of HMLE-shGFP cells at 5 uM irradiated with UV-light measured after 2 to 3 hrs by confocal microscopic method; format: ADME, subcellular; conditions: human
MCF7 [14] = assay: Cell cycle arrest in human MCF7 cells in presence of irradiation; format: functional, cell-based
[15] = Cell cycle arrest in HMLE-shEcad cells assessed as delay in G1/S phase at 1 to 10 uM after 24 to 48 hrs in absence of irradiation by propidium iodide staining-based flow cytometric method; conditions: human
[16] = Cell cycle arrest in HMLE-shGFP cells assessed as accumulation at S phase at 1 to 10 uM irradiated at 420 nm at 4 hrs post compound addition for 5 mins measured after 24 to 48 hrs by propidium iodide staining-based flow cytometric method; conditions: human
[17] = Photocytotoxicity against HMLE-shGFP cells assessed as growth inhibition irradiated at 350 nm at 4, 24, 48 hrs post compound addition for 5 mins measured after 72 hrs by MTT assay; format: cell-based; conditions: Homo sapiens, light or radiation study
HCT-116 [18] = assay: Photocytotoxicity against human HCT116 cells assessed as growth inhibition irradiated at 420 nm at 4, 24, 48 hrs post compound addition for 5 mins measured after 72 hrs by MTT assay; format: functional, cell-based; conditions: HCT-116, light or radiation study
[19] = Anticlonogenic activity against HMLE-shGFP cells at 0.5 to 1 uM irradiated at 350 nm at 4 hrs post compound addition for 5 mins measured after 24 hrs by crystal violet staining-based assay; format: ADME, cell-based; conditions: human
HCT-116 [20] = assay: Photocytotoxicity against human HCT116 cells assessed as growth inhibition irradiated at 350 nm at 4, 24, 48 hrs post compound addition for 5 mins measured after 72 hrs by MTT assay; format: functional, cell-based; conditions: HCT-116, light or radiation study
HMLE [21] = assay: Cell cycle arrest in HMLE-shEcad cells assessed as accumulation at G2/M phase at 1 to 10 uM irradiated at 420 nm at 4 hrs post compound addition for 5 mins measured after 24 to 48 hrs by propidium iodide staining-based flow cytometric method; format: functional; conditions: Homo sapiens
HMLE [22] = assay: Anticlonogenic activity against HMLE-shEcad cells at 0.5 to 1 uM irradiated at 350 nm at 4 hrs post compound addition for 5 mins for 5 mins measured after 24 hrs by crystal violet staining-based assay; format: functional, cell-based; conditions: Homo sapiens
[23] = Drug uptake in cytoplasm of HMLE-shEcad cells at 5 uM irradiated with UV-light measured after 2 to 3 hrs by confocal microscopic method; format: ADME, subcellular; conditions: human
[24] = Photocytotoxicity against HMLE-shEcad cells assessed as growth inhibition irradiated at 420 nm at 4, 24, 48 hrs post compound addition for 5 mins measured after 72 hrs by MTT assay; format: functional, cell-based; conditions: Homo sapiens, light or radiation study
NCI-H460 [25] = assay: Photocytotoxicity against human H460 cells assessed as growth inhibition irradiated at 420 nm at 4, 24, 48 hrs post compound addition for 5 mins measured after 72 hrs by MTT assay; format: functional, cell-based; conditions: NCI-H460, light or radiation study
[26] = Cytotoxicity against HMLE-shGFP cells at 10 uM irradiated at 420 nm at 4 hrs post compound addition for 5 mins measured after 48 hrs by propidium iodide staining-based flow cytometric method; format: cell-based; conditions: human
[27] = Photocytotoxicity against HMLE-shGFP cells assessed as growth inhibition irradiated at 420 nm at 4, 24, 48 hrs post compound addition for 5 mins measured after 72 hrs by MTT assay; format: cell-based; conditions: Homo sapiens, light or radiation study
[28] = Induction of reactive oxygen species generation in HMLE-shGFP cells at 10 uM irradiated at 420 nm for 5 mins measured after 2 hrs by H2DCF-DA dye-based FACS analysis relative to non-irradiated cells; format: cell-based; conditions: human
[29] = Dark toxicity against human SUM159 cells after 72 hrs by MTT assay; format: cell-based, SUM-159-PT
NCI-H460 [30] = assay: Photocytotoxicity against human H460 cells assessed as growth inhibition irradiated at 350 nm at 4, 24, 48 hrs post compound addition for 5 mins measured after 72 hrs by MTT assay; format: functional, cell-based; conditions: NCI-H460, light or radiation study
[31] = Dark toxicity against human HCT116 cells after 72 hrs by MTT assay; format: cell-based, HCT-116
[32] = Dark toxicity against HMLE-shEcad cells after 72 hrs by MTT assay; format: cell-based; conditions: human
SUM-159-PT [33] = assay: Photocytotoxicity against human SUM159 cells assessed as growth inhibition irradiated at 420 nm at 4, 24, 48 hrs post compound addition for 5 mins measured after 72 hrs by MTT assay; format: functional, cell-based; conditions: light or radiation study
[34] = Drug uptake in cytoplasm of HMLE-shGFP cells at 10 uM in absence of irradiation measured after 2 to 3 hrs by confocal microscopic method; format: ADME, subcellular; conditions: human
[35] = Drug uptake in plasma membranes of HMLE-shGFP cells at 5 uM irradiated at 420 nm for 5 mins measured after 2 to 3 hrs by confocal microscopic method; format: ADME, cell membranes, Plasma membrane; conditions: human
[36] = Cell cycle arrest in HMLE-shEcad cells at 1 to 5 uM after 24 to 48 hrs in absence of irradiation by propidium iodide staining-based flow cytometric method; conditions: human
[37] = Drug uptake in intracellular membranes of HMLE-shGFP cells at 5 uM irradiated at 420 nm for 5 mins measured after 2 to 3 hrs by confocal microscopic method; format: ADME, cell membranes, Intracellular membrane; conditions: human
[38] = Drug uptake in nucleus of HMLE-shGFP cells at 10 uM in absence of irradiation measured after 2 to 3 hrs by confocal microscopic method; format: ADME, subcellular; conditions: human
[39] = Drug uptake in nucleus of HMLE-shGFP cells at 5 uM irradiated at 420 nm for 5 mins measured after 2 to 3 hrs by confocal microscopic method; format: ADME, subcellular; conditions: human
[40] = Drug uptake in cytoplasm of HMLE-shGFP cells at 5 uM irradiated at 420 nm for 5 mins measured after 2 to 3 hrs by confocal microscopic method; format: ADME, subcellular; conditions: human
Calf thymus DNA [41] = assay: Binding affinity to calf thymus DNA at 4.2 x 10^-5 M by UV-vis spectrocopic method; format: nucleic-acid assay; conditions: Bos taurus
[42] = Dark toxicity against human MCF7 cells after 72 hrs by MTT assay; format: cell-based
HMLE [43] = assay: Cell cycle arrest in HMLE-shEcad cells assessed as delay in S/G2 phase at 5 uM irradiated at 420 nm at 4 hrs post compound addition for 5 mins measured after 24 to 48 hrs by propidium iodide staining-based flow cytometric method; format: functional; conditions: Homo sapiens
Calf thymus DNA [44] = assay: Binding affinity to calf thymus DNA at 4.2 x 10^-5 M in presence of irradiation at 420 nm for 5 mins by fluorescence spectrocopic method; format: nucleic-acid assay; conditions: Bos taurus
Calf thymus DNA [45] = assay: Binding affinity to calf thymus DNA at 4.2 x 10^-5 M by fluorescence spectrocopic method; format: nucleic-acid assay; conditions: Bos taurus
[46] = Cell cycle arrest in HMLE-shGFP cells at 1 to 5 uM after 24 to 48 hrs in absence of irradiation by propidium iodide staining-based flow cytometric method; conditions: human
[47] = Cell cycle arrest in HMLE-shGFP cells assessed as delay in S/G2 phase at 5 uM irradiated at 420 nm at 4 hrs post compound addition for 5 mins measured after 24 to 48 hrs by propidium iodide staining-based flow cytometric method; conditions: human

Structure (SMILES) | Activity (SUM-159-PT [1]) | Activity (HMLE [2]) | IC50 at 72 h [4] | IC50 (MCF7 [6]) | IC50 [7] | IC50 at 72 h [10] | IC50 (MCF7 [12]) | Activity (MCF7 [14]) | IC50 [17] | IC50 (HCT-116 [18]) | IC50 (HCT-116 [20]) | Activity (HMLE [22]) | IC50 [24] | IC50 (NCI-H460 [25]) | Activity [26] | IC50 [27] | IC50 at 72 h [29] | IC50 (NCI-H460 [30]) | IC50 at 72 h [31] | IC50 at 72 h [32] | also measured
OCc1ccc2cc3ccccc3cc2c1 | inactive | Active | 33 µM | 0.5 µM | 1 µM | 33 µM | 2 µM | inactive | 0.6 µM | 2 µM | 1 µM | inactive | 2 µM | 2 µM | Toxic | 10 µM | 13 µM | 1 µM | > 100 µM | 22 µM | Drug uptake [3]: Not Active; Activity (HMLE [5]): Active; Activity [8]: Non-Toxic; fold change (FC) [9]: 7; Drug uptake [11]: Active; Drug uptake [13]: Not Active; Activity [15]: Toxic; Activity [16]: Non-Toxic; Activity [19]: Non-Toxic; Activity (HMLE [21]): Active; Drug uptake [23]: Active; fold change (FC) [28]: 4; IC50 (SUM-159-PT [33]): 1 µM
OCc1cc2cc3ccccc3cc2cc1O | inactive | Active | ≥ 100 µM | 2 µM | 2 µM | 11 µM | 3 µM | inactive | 0.7 µM | 1 µM | 2 µM | Active | 1 µM | 10 µM | Toxic | 1 µM | 11 µM | 15 µM | ≥ 100 µM | 17 µM | Drug uptake [34]: Active; Drug uptake [35]: Active; Activity [36]: Non-Toxic; Drug uptake [37]: Active; Drug uptake [38]: Not Active; Drug uptake [39]: Not Active; Drug uptake [40]: Active; Activity (Calf thymus DNA [41]): inactive; IC50 at 72 h [42]: ≥ 100 µM; Activity (HMLE [43]): Active; Activity (Calf thymus DNA [44]): Active; Activity (Calf thymus DNA [45]): inactive; Activity [46]: Non-Toxic; Activity [47]: Toxic; IC50 (SUM-159-PT [33]): 2 µM
